These results are taken from ChEMBL document CHEMBL2424646, “Design, synthesis and biological evaluation of novel mansonone E derivatives prepared via CuAAC click chemistry as topoisomerase II inhibitors” (Eur J Med Chem, 2013).

Each structure is given as a SMILES string. The source made the active and inactive calls. The rule behind the calls is not given here.

In assay [1] the target is T1, DNA topoisomerase 2-alpha (Homo sapiens, UniProt P11388). The assay is described as follows: Inhibition of human DNA topoisomerase 2alpha-mediated relaxation of supercoiled pBR322 at 20 uM after 30 mins by agarose gel electrophoresis.
For assay [2], the target named is T1, DNA topoisomerase 2-alpha. The assay is described as follows: Inhibition of human DNA topoisomerase 2alpha using pBR322 DNA at 2 uM after 30 mins by agarose gel electrophoresis.
The subject of assay [3] is HL-60. Briefly: Cytotoxicity against human HL60 cells after 48 hrs by MTT assay. It is filed as functional, cell-based. The conditions noted are these: HL-60, 48 h.
Assay [4] has as its system K562. The assay is described as follows: Cytotoxicity against human K562 cells after 48 hrs by MTT assay. It is filed as functional, cell-based. The following applies: K562, 48 h.
The subject of assay [5] is A549. Briefly: Cytotoxicity against human A549 cells after 48 hrs by MTT assay. The assay is classed as functional, cell-based. The following applies: A549, 48 h.
Assay [6] deals with HeLa. The assay is described as follows: Cytotoxicity against human HeLa cells after 48 hrs by MTT assay. It is filed as functional, cell-based.

T1 sequence (P11388 whole entry): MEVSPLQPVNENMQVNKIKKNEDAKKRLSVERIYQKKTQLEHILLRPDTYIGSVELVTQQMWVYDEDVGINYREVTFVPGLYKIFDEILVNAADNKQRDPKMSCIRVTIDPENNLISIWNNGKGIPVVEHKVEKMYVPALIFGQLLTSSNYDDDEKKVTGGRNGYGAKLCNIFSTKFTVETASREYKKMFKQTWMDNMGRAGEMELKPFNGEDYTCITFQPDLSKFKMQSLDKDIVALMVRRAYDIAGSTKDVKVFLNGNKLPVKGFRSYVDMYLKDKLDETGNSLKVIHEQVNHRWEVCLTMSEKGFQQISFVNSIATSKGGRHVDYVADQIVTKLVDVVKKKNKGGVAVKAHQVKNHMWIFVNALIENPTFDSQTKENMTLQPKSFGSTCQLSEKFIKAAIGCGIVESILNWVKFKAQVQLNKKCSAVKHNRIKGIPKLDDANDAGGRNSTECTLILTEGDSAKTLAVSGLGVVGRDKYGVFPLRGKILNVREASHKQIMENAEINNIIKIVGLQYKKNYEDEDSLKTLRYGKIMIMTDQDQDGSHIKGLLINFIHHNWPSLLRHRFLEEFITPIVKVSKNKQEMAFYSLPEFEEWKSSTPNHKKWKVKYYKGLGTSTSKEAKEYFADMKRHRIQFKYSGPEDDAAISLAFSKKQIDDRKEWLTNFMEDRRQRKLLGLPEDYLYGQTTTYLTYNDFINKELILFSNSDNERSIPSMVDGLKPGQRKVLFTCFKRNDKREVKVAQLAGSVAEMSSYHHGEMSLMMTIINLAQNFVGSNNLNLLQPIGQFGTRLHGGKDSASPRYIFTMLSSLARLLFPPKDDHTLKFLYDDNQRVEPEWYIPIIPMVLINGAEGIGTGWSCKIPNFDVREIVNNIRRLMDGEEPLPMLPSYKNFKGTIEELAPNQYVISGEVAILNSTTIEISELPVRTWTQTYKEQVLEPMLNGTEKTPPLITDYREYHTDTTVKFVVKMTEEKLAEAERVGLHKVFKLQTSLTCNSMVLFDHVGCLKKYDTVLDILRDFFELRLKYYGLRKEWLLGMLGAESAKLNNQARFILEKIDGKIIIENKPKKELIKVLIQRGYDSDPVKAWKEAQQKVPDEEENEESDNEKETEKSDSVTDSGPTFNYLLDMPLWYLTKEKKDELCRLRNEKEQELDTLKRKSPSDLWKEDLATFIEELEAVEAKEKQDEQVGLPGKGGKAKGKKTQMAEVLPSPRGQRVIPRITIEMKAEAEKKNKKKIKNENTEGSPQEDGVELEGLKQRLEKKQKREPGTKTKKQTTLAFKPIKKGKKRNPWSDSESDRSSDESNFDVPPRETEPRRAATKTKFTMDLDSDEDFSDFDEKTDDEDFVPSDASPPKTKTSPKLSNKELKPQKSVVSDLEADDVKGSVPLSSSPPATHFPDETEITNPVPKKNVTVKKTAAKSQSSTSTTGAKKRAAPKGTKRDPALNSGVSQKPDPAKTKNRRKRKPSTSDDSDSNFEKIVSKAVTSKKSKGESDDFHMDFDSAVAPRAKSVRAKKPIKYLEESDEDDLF

`Cc1ccc(-c2cn(C3COC4=C(Cl)C(=O)C(=O)c5cccc3c54)nn2)cc1` (configuration not stated): the inhibition entry in assay [1] and in assay [2] was “Active” throughout. Further, the half-inhibitory concentration (IC50) in assay [3] is 19.8 µM; in assay [4] it was 18.3 µM; in assay [5], 55.5 µM; in assay [6], 32.8 µM.

`COc1ccc(-c2cn(C3COC4=C(Br)C(=O)C(=O)c5cccc3c54)nn2)cc1` (configuration not stated): the inhibition entry in assay [1] and in assay [2] was “Active” in each case. The IC50 in assay [3] was determined as 10.3 µM; in assay [4], 12.7 µM; in assay [5], 45.8 µM; in assay [6], 26.7 µM.

With `COC(=O)c1cn(C2COC3=C(Cl)C(=O)C(=O)c4cccc2c43)nn1` (configuration not stated), the inhibition result in assay [1] and in assay [2] was “Active” in each case. Besides, the half-inhibitory concentration (IC50) is 98 µM in assay [3], more than 50 µM in assay [4], more than 100 µM in assay [5] and more than 100 µM in assay [6].

In the case of `CCOC(=O)c1cn(C2COC3=C(Br)C(=O)C(=O)c4cccc2c43)nn1` (configuration not stated), the inhibition result in assay [1] and in assay [2] was “Active” throughout. The 50% inhibitory concentration (IC50) in assay [3], in assay [4], in assay [5] and in assay [6] was more than 50 µM throughout.

As to `O=C1C(=O)c2cccc3c2C(=C1Cl)OCC3n1cc(-c2ccccn2)nn1` (configuration not stated), the inhibition result in assay [1] and in assay [2] was “Active” each time. Also, the 50% inhibitory concentration (IC50) in assay [3] came to 2.7 µM; in assay [4], 5.87 µM; in assay [5], 17.8 µM; in assay [6], 28.9 µM.

For `CCCCc1ccc(-c2cn(C3COC4=C(Br)C(=O)C(=O)c5cccc3c54)nn2)cc1` (configuration not stated), the inhibition entry in assay [1] and in assay [2] was “Active” throughout. Besides, the IC50 in assay [3] stood at 2.55 µM; in assay [4], 3.87 µM; in assay [5] it was 18.3 µM; in assay [6], 12.5 µM.

As to `COC(=O)c1nnn(C2COC3=C(Cl)C(=O)C(=O)c4cccc2c43)c1C(=O)OC` (configuration not stated), the inhibition result in assay [1] and in assay [2] was “Active” in each case. Besides, the IC50 in assay [3] was more than 100 µM; in assay [4] it was more than 50 µM; in assay [5], more than 100 µM; in assay [6], more than 100 µM.

On to `O=C1C(=O)c2cccc3c2C(=C1Cl)OCC3n1cc(-c2ccc(Cl)cc2)nn1` (configuration not stated), for which the inhibition entry in assay [1] and in assay [2] was “Active” each time. Further, the half-inhibitory concentration (IC50) in assay [3] turned out to be 12.2 µM; in assay [4], 20.6 µM; in assay [5] it was 77.7 µM; in assay [6], 67.4 µM.

On to `O=C1C(=O)c2cccc3c2C(=C1Br)OCC3n1cc(C2CC2)nn1` (configuration not stated), for which the inhibition result in assay [1] and in assay [2] was “Active” each time. Besides, the IC50 in assay [3] was 22.7 µM; in assay [4], 40.2 µM; in assay [5] it was more than 50 µM; in assay [6], 43.1 µM.

For the compound `COC(=O)c1nnn(C2COC3=C(Br)C(=O)C(=O)c4cccc2c43)c1C(=O)OC` (configuration not stated), the inhibition result in assay [1] and in assay [2] was “Active” in each case. Besides, the IC50 in assay [3], in assay [4], in assay [5] and in assay [6] was more than 50 µM each time.

As to `O=C1C(=O)c2cccc3c2C(=C1Br)OCC3n1cc(-c2ccccc2)nn1` (configuration not stated), the inhibition result in assay [1] and in assay [2] was “Active” in each case. The IC50 in assay [3] amounted to 29.3 µM; in assay [4] it was 40.1 µM; in assay [5], 50 µM; in assay [6] it was 42.9 µM.

`O=C1C(=O)c2cccc3c2C(=C1Br)OCC3n1cc(-c2ccccn2)nn1` (configuration not stated): the inhibition entry in assay [1] and in assay [2] was “Active” in each case. In addition, the IC50 in assay [3] is 2.11 µM; in assay [4] it was 3.23 µM; in assay [5] it was 15.3 µM; in assay [6], 16.2 µM.
